Measurements as given in patent US9328138B2 (priority 2011, dated 2016).
Counter-ions that a name gives are not always drawn.

What was measured:
[1] = biological target: T1, HCV genotype 1b (BK) NS3 modified enzyme with a R155K mutation (Hepatitis C virus genotype 1b, UniProt P26663, R1181K); test: HCV NS3 protease time-resolved fluorescence (TRF) assay, genotype 1b R155K; assay type: biochemical; conditions: Ki 1b R155K
T1 construct: HCV genotype 1b (BK) NS3 modified enzyme
Procedure, shortened: (§1)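 Time-resolved fluorescence, ex 340/em 615 nm, 400 μs delay; IC50 by four-parameter fit. Enzyme preincubated with compound 10 min, then TRF substrate 25 nM final added and reaction run 6 h at RT. Buffer HEPES pH 7.5 with NaCl, glycerol, Triton X-100, DTT, PEG 8000.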

[2] = biological target: HCV NS3 protease genotype 3a (3A-1) (Hepatitis C virus genotype 3a, UniProt Q81258); test: HCV NS3 protease time-resolved fluorescence (TRF) assay, genotype 3a; assay type: biochemical; conditions: Ki 3a
Procedure, shortened: as §1

[3] = first of two values printed in the cell (not explained)
[4] = second of two values printed in the cell (not explained)

Structure (SMILES)	Ki [1, 3] [nM]	Ki [1, 4] [nM]	Ki [2] [nM]
C=C[C@@H]1C[C@]1(NC(=O)[C@@H]1C[C@@H]2CN1C(=O)[C@H](C1CCCCC1)NC(=O)O[C@@H]1C[C@H]1CCCCCc1c(nc3ccccc3c1OCCCNC1CCC1)O2)C(=O)NS(=O)(=O)C1(C)CC1 [Example 242, N-(3-{[(1aR,5S,8S,10R,22aR)-5-cyclohexyl-8-{[(1R,2S)-2-ethenyl-1-{[(1-methylcyclopropyl)sulfonyl]carbamoyl}cyclopropyl]carbamoyl}-3,6-dioxo-1,1a,3,4,5,6,9,10,18,19,20,21,22,22a-tetradecahydro-8H-7,10-methanocyclopropa[18,19][1,10,3,6]dioxadiazacyclononadecino[11,12-b]quinolin-17-yl]oxy}propyl)cyclobutanaminium formate]	0.013	0.072	0.935
C=C[C@@H]1C[C@]1(NC(=O)[C@@H]1C[C@@H]2CN1C(=O)[C@H](C1CCCCC1)NC(=O)O[C@@H]1C[C@H]1CCCCCc1c(nc3ccccc3c1OCCCNC1CC(F)(F)C1)O2)C(=O)NS(=O)(=O)C1(C)CC1 [Example 243, (1aR,5S,8S,10R,22aR)-5-cyclohexyl-17-{3-[(3,3-difluorocyclobutyl)amino]propoxy}-N-[(1R,2S)-2-ethenyl-1-{[(1-methylcyclopropyl)sulfonyl]carbamoyl}cyclopropyl]-3,6-dioxo-1,1a,3,4,5,6,9,10,18,19,20,21,22,22a-tetradecahydro-8H-7,10-methanocyclopropa[18,19][1,10,3,6]dioxadiazacyclononadecino[11,12-b]quinoline-8-carboxamide]	0.033	0.275	3.31
C=C[C@@H]1C[C@]1(NC(=O)[C@@H]1C[C@@H]2CN1C(=O)[C@H](C(C)(C)C)NC(=O)O[C@@H]1C[C@H]1CCCCCc1c(nc3ccccc3c1-c1ccncc1)O2)C(=O)NS(=O)(=O)C1(C)CC1 [Example 244, (1aR,5S,8S,10R,22aR)-5-tert-butyl-N-[(1R,2S)-2-ethenyl-1-{[(1-methylcyclopropyl)sulfonyl]carbamoyl}cyclopropyl]-3,6-dioxo-17-(pyridin-4-yl)-1,1a,3,4,5,6,9,10,18,19,20,21,22,22a-tetradecahydro-8H-7,10-methanocyclopropa[18,19][1,10,3,6]dioxadiazacyclononadecino[11,12-b]quinoline-8-carboxamide]	1.59	1.65	296
C=C[C@@H]1C[C@]1(NC(=O)[C@@H]1C[C@@H]2CN1C(=O)[C@H](C(C)(C)C)NC(=O)O[C@@H]1C[C@H]1CCCCCc1c(nc3ccccc3c1-c1ccccn1)O2)C(=O)NS(=O)(=O)C1(C)CC1 [Example 245, (1aR,5S,8S,10R,22aR)-5-tert-butyl-N-[(1R,2S)-2-ethenyl-1-{[(1-methylcyclopropyl)sulfonyl]carbamoyl}cyclopropyl]-3,6-dioxo-17-(pyridin-2-yl)-1,1a,3,4,5,6,9,10,18,19,20,21,22,22a-tetradecahydro-8H-7,10-methanocyclopropa[18,19][1,10,3,6]dioxadiazacyclononadecino[11,12-b]quinoline-8-carboxamide]	0.546	1.41	128
C=C[C@@H]1C[C@]1(NC(=O)[C@@H]1C[C@@H]2CN1C(=O)[C@H](C(C)(C)C)NC(=O)O[C@@H]1C[C@H]1CCCCCc1c(nc3ccccc3c1-c1cccnc1)O2)C(=O)NS(=O)(=O)C1(C)CC1 [Example 246, (1aR,5S,8S,10R,22aR)-5-tert-butyl-N-[(1R,2S)-2-ethenyl-1-{[(1-methylcyclopropyl)sulfonyl]carbamoyl}cyclopropyl]-3,6-dioxo-17-(pyridin-3-yl)-1,1a,3,4,5,6,9,10,18,19,20,21,22,22a-tetradecahydro-8H-7,10-methanocyclopropa[18,19][1,10,3,6]dioxadiazacyclononadecino[11,12-b]quinoline-8-carboxamide]	1.02	1.14	211
C=C[C@@H]1CC1(NC(=O)[C@@H]1C[C@@H]2CN1C(=O)[C@H](C(C)(C)C)NC(=O)O[C@@H]1C[C@H]1CCCCCc1c(nc3ccccc3c1CN1CCOCC1)O2)C(=O)NS(=O)(=O)C1(C)CC1 (stereo partly drawn) [Example 248, potassium {[(1R,2S)-1-({[(1aR,5S,8S,10R,22aR)-5-tert-butyl-17-(morpholin-4-ylmethyl)-3,6-dioxo-1,1a,3,4,5,6,9,10,18,19,20,21,22,22a-tetradecahydro-8H-7,10-methanocyclopropa[18,19][1,10,3,6]dioxadiazacyclononadecino[11,12-b]quinolin-8-yl]carbonyl}amino)-2-ethenylcyclopropyl]carbonyl}[(1-methylcyclopropyl)sulfonyl]azanide]	0.1	0.348	40.2
C=C[C@@H]1C[C@]1(NC(=O)[C@@H]1C[C@@H]2CN1C(=O)[C@H](C1CCCCC1)NC(=O)O[C@@H]1C[C@H]1CCCCCc1c(nc3ccccc3c1OCCCN1CC(F)(F)C1)O2)C(=O)NS(=O)(=O)C1(C)CC1 [Example 249, (1aR,5S,8S,10R,22aR)-5-cyclohexyl-17-[3-(3,3-difluoroazetidin-1-yl)propoxy]-N-[(1R,2S)-2-ethenyl-1-{[(1-methylcyclopropyl)sulfonyl]carbamoyl}cyclopropyl]-3,6-dioxo-1,1a,3,4,5,6,9,10,18,19,20,21,22,22a-tetradecahydro-8H-7,10-methanocyclopropa[18,19][1,10,3,6]dioxadiazacyclononadecino[11,12-b]quinoline-8-carboxamide]	0.026	0.5	7.55
C=C[C@@H]1CC1(NC(=O)[C@@H]1C[C@@H]2CN1C(=O)[C@H](C1CCCCC1)NC(=O)O[C@@H]1C[C@H]1CCCCCc1c(nc3ccccc3c1OCCCN1CC(F)C1)O2)C(=O)NS(=O)(=O)C1(C)CC1 (stereo partly drawn) [Example 250]	0.024	0.16	4.45
C=C[C@@H]1C[C@]1(NC(=O)[C@@H]1C[C@@H]2CN1C(=O)[C@H](C1CCCCC1)NC(=O)O[C@@H]1C[C@H]1CCCCCc1c(nc3ccccc3c1OCCCN1CCN(C)CC1)O2)C(=O)NS(=O)(=O)C1(C)CC1 [Example 251, (1aR,5S,8S,10R,22aR)-5-cyclohexyl-N-[(1R,2S)-2-ethenyl-1-{[(1-methylcyclopropyl)sulfonyl]carbamoyl}cyclopropyl]-17-[3-(4-methylpiperazin-1-yl)propoxy]-3,6-dioxo-1,1a,3,4,5,6,9,10,18,19,20,21,22,22a-tetradecahydro-8H-7,10-methanocyclopropa[18,19][1,10,3,6]dioxadiazacyclononadecino[11,12-b]quinoline-8-carboxamide]	0.015	0.051	1.15
C=C[C@@H]1CC1(NC(=O)[C@@H]1C[C@@H]2CN1C(=O)[C@H](C1CCOCC1)NC(=O)O[C@@H]1C[C@H]1CCCCCc1c(nc3ccccc3c1OC1CCN(C)CC1)O2)C(=O)NS(=O)(=O)C1(C)CC1 (stereo partly drawn) [Example 252, potassium {[(1R,2S)-2-ethenyl-1-({[(1aR,5S,8S,10R,22aR)-17-[(1-methylpiperidin-4-yl)oxy]-3,6-dioxo-5-(tetrahydro-2H-pyran-4-yl)-1,1a,3,4,5,6,9,10,18,19,20,21,22,22a-tetradecahydro-8H-7,10-methanocyclopropa[18,19][1,10,3,6]dioxadiazacyclononadecino[11,12-b]quinolin-8-yl]carbonyl}amino)cyclopropyl]carbonyl}[(1-methylcyclopropyl)sulfonyl]azanide]	0.009	0.022	0.088
